Key:
[1] = molecular target: Rev responsive element (RRE) RNA; experiment: Binding affinity to Rev response element RNA; assay type: nucleic-acid assay
[2] = molecular target: Rev responsive element (RRE) RNA; experiment: Inhibition of Rev binding to Rev response element RNA in presence of competitor RNA; assay type: nucleic-acid assay
[3] = molecular target: Rev responsive element (RRE) RNA; experiment: Inhibition of Rev binding to Rev response element RNA in absence of competitor RNA; assay type: nucleic-acid assay
[4] = test system: Rev responsive element (RRE) RNA; experiment: Discrimination factor, Kd for tRNA/Kd for Rev response element RNA; assay type: nucleic-acid assay
tRNA = experiment: Binding affinity to tRNA
[5] = test system: Rev responsive element (RRE) RNA; experiment: Ratio of inhibition of Rev binding to Rev response element RNA in presence to absence of competitor RNA; assay type: nucleic-acid assay

SMILES	Kd [1] [nM]	Ratio [4]	Kd (tRNA) [nM]	further results
NC[C@@H]1O[C@H](O[C@H]2[C@@H](O)[C@H](O[C@@H]3[C@@H](O)[C@H](N)C[C@H](N)[C@H]3O[C@H]3O[C@H](CN)[C@@H](O)[C@H](O)[C@H]3N)O[C@@H]2CSCCCCCCSCC(=O)NCCN(CC(=O)NCCN(CC(N)=O)C(=O)Cn2ccc(N)nc2=O)C(=O)Cn2ccc(N)nc2=O)[C@H](N)[C@@H](O)[C@@H]1O	430	–	–	–
NC[C@@H]1O[C@H](O[C@H]2[C@@H](O)[C@H](O[C@@H]3[C@@H](O)[C@H](N)C[C@H](N)[C@H]3O[C@H]3O[C@H](CN)[C@@H](O)[C@H](O)[C@H]3N)O[C@@H]2CSCCNc2c3ccccc3nc3ccccc23)[C@H](N)[C@@H](O)[C@@H]1O	–	–	–	IC50 [2]: 9800 nM; IC50 [3]: 500 nM
CC(=O)N(CCNC(=O)CSCCCCCCSC[C@H]1O[C@@H](O[C@@H]2[C@@H](O)[C@H](N)C[C@H](N)[C@H]2O[C@H]2O[C@H](CN)[C@@H](O)[C@H](O)[C@H]2N)[C@H](O)[C@@H]1O[C@H]1O[C@@H](CN)[C@@H](O)[C@H](O)[C@H]1N)CC(=O)NCCN(CC(N)=O)C(=O)Cn1cnc2c(O)nc(N)nc21	130	–	–	–
NC[C@@H]1O[C@H](O[C@H]2[C@@H](O)[C@H](O[C@@H]3[C@@H](O)[C@H](N)C[C@H](N)[C@H]3O[C@H]3O[C@H](CN)[C@@H](O)[C@H](O)[C@H]3N)O[C@@H]2CSCCCCCCSCC(=O)NCCN(CC(=O)NCCN(CC(N)=O)C(=O)Cn2cnc3c(O)nc(N)nc32)C(=O)Cn2cnc3c(N)ncnc32)[C@H](N)[C@@H](O)[C@@H]1O	38	4.5	170	–
CC(=O)N(CCNC(=O)CSCCCCCCSC[C@H]1O[C@@H](O[C@@H]2[C@@H](O)[C@H](N)C[C@H](N)[C@H]2O[C@H]2O[C@H](CN)[C@@H](O)[C@H](O)[C@H]2N)[C@H](O)[C@@H]1O[C@H]1O[C@@H](CN)[C@@H](O)[C@H](O)[C@H]1N)CC(=O)NCCN(CC(N)=O)C(=O)Cn1cc(C)c(=O)[nH]c1=O	270	–	–	–
Cc1cn(CC(=O)N(CCNC(=O)CSCCCCCCSC[C@H]2O[C@@H](O[C@@H]3[C@@H](O)[C@H](N)C[C@H](N)[C@H]3O[C@H]3O[C@H](CN)[C@@H](O)[C@H](O)[C@H]3N)[C@H](O)[C@@H]2O[C@H]2O[C@@H](CN)[C@@H](O)[C@H](O)[C@H]2N)CC(=O)NCCN(CC(N)=O)C(=O)Cn2ccc(N)nc2=O)c(=O)[nH]c1=O	360	–	–	–
NC[C@@H]1O[C@H](O[C@H]2[C@@H](O)[C@H](O[C@@H]3[C@@H](O)[C@H](N)C[C@H](N)[C@H]3O[C@H]3O[C@H](CN)[C@@H](O)[C@H](O)[C@H]3N)O[C@@H]2CSCCCCCCSCC(=O)NCCN(CC(=O)NCCN(CC(N)=O)C(=O)Cn2ccc(N)nc2=O)C(=O)Cn2cnc3c(N)ncnc32)[C@H](N)[C@@H](O)[C@@H]1O	51	1.5	76	–
Cc1cn(CC(=O)N(CCNC(=O)CN(CCNC(=O)CSCCCCCCSC[C@H]2O[C@@H](O[C@@H]3[C@@H](O)[C@H](N)C[C@H](N)[C@H]3O[C@H]3O[C@H](CN)[C@@H](O)[C@H](O)[C@H]3N)[C@H](O)[C@@H]2O[C@H]2O[C@@H](CN)[C@@H](O)[C@H](O)[C@H]2N)C(=O)Cn2ccc(N)nc2=O)CC(N)=O)c(=O)[nH]c1=O	110	–	–	–
Cc1cn(CC(=O)N(CCNC(=O)CN(CCNC(=O)CSCCCCCCSC[C@H]2O[C@@H](O[C@@H]3[C@@H](O)[C@H](N)C[C@H](N)[C@H]3O[C@H]3O[C@H](CN)[C@@H](O)[C@H](O)[C@H]3N)[C@H](O)[C@@H]2O[C@H]2O[C@@H](CN)[C@@H](O)[C@H](O)[C@H]2N)C(=O)Cn2cnc3c(N)ncnc32)CC(N)=O)c(=O)[nH]c1=O	250	–	–	–
NC[C@@H]1O[C@H](O[C@H]2[C@@H](O)[C@H](O[C@@H]3[C@@H](O)[C@H](N)C[C@H](N)[C@H]3O[C@H]3O[C@H](CN)[C@@H](O)[C@H](O)[C@H]3N)O[C@@H]2CSCCCCCCSCC(=O)NCCN(CC(=O)NCCN(CC(N)=O)C(=O)Cn2cnc3c(N)ncnc32)C(=O)Cn2ccc(N)nc2=O)[C@H](N)[C@@H](O)[C@@H]1O	130	–	–	–
Cc1cn(CC(=O)N(CCNC(=O)CSCCCCCCSC[C@H]2O[C@@H](O[C@@H]3[C@@H](O)[C@H](N)C[C@H](N)[C@H]3O[C@H]3O[C@H](CN)[C@@H](O)[C@H](O)[C@H]3N)[C@H](O)[C@@H]2O[C@H]2O[C@@H](CN)[C@@H](O)[C@H](O)[C@H]2N)CC(=O)NCCN(CC(N)=O)C(=O)Cn2cnc3c(N)ncnc32)c(=O)[nH]c1=O	71	3.2	230	–
CC(=O)N(CCNC(=O)CSCCCCCCSC[C@H]1O[C@@H](O[C@@H]2[C@@H](O)[C@H](N)C[C@H](N)[C@H]2O[C@H]2O[C@H](CN)[C@@H](O)[C@H](O)[C@H]2N)[C@H](O)[C@@H]1O[C@H]1O[C@@H](CN)[C@@H](O)[C@H](O)[C@H]1N)CC(=O)NCCN(CC(N)=O)C(=O)Cn1ccc(N)nc1=O	320	–	–	–
Cc1cn(CC(=O)N(CCNC(=O)CN(CCNC(=O)CSCCCCCCSC[C@H]2O[C@@H](O[C@@H]3[C@@H](O)[C@H](N)C[C@H](N)[C@H]3O[C@H]3O[C@H](CN)[C@@H](O)[C@H](O)[C@H]3N)[C@H](O)[C@@H]2O[C@H]2O[C@@H](CN)[C@@H](O)[C@H](O)[C@H]2N)C(=O)Cn2cc(C)c(=O)[nH]c2=O)CC(N)=O)c(=O)[nH]c1=O	130	–	–	–
NC[C@@H]1O[C@H](O[C@H]2[C@@H](O)[C@H](O[C@@H]3[C@@H](O)[C@H](N)C[C@H](N)[C@H]3O[C@H]3O[C@H](CN)[C@@H](O)[C@H](O)[C@H]3N)O[C@@H]2CSCCCCCCSCC(=O)NCCN(CC(=O)NCCN(CC(N)=O)C(=O)Cn2ccc(N)nc2=O)C(=O)Cn2cnc3c(O)nc(N)nc32)[C@H](N)[C@@H](O)[C@@H]1O	240	–	–	–
NC[C@@H]1O[C@H](O[C@H]2[C@@H](O)[C@H](O[C@@H]3[C@@H](O)[C@H](N)C[C@H](N)[C@H]3O[C@H]3O[C@H](CN)[C@@H](O)[C@H](O)[C@H]3N)O[C@@H]2CSCCCCCCSCC(=O)NCCN(CC(=O)NCCN(CC(N)=O)C(=O)Cn2cnc3c(O)nc(N)nc32)C(=O)Cn2cnc3c(O)nc(N)nc32)[C@H](N)[C@@H](O)[C@@H]1O	30	7	210	Ratio [5]: 1.4; IC50 [2]: 45000 nM; IC50 [3]: 32000 nM
Cc1cn(CC(=O)N(CCNC(=O)CN(CCNC(=O)CSCCCCCCSC[C@H]2O[C@@H](O[C@@H]3[C@@H](O)[C@H](N)C[C@H](N)[C@H]3O[C@H]3O[C@H](CN)[C@@H](O)[C@H](O)[C@H]3N)[C@H](O)[C@@H]2O[C@H]2O[C@@H](CN)[C@@H](O)[C@H](O)[C@H]2N)C(=O)Cn2cnc3c(O)nc(N)nc32)CC(N)=O)c(=O)[nH]c1=O	93	2.4	220	–
NC[C@@H]1O[C@H](O[C@H]2[C@@H](O)[C@H](O[C@@H]3[C@@H](O)[C@H](N)C[C@H](N)[C@H]3O[C@H]3O[C@H](CN)[C@@H](O)[C@H](O)[C@H]3N)O[C@@H]2CSCCCCCCSCC(=O)NCCN(CC(=O)NCCN(CC(N)=O)C(=O)Cn2cnc3c(N)ncnc32)C(=O)Cn2cnc3c(N)ncnc32)[C@H](N)[C@@H](O)[C@@H]1O	58	7.1	410	Ratio [5]: 1.2; IC50 [2]: 68000 nM; IC50 [3]: 55000 nM
NC[C@@H]1O[C@H](O[C@H]2[C@@H](O)[C@H](O[C@@H]3[C@@H](O)[C@H](N)C[C@H](N)[C@H]3O[C@H]3O[C@H](CN)[C@@H](O)[C@H](O)[C@H]3N)O[C@@H]2CSCCCCCCSCC(=O)NCCN(CC(=O)NCCN(CC(N)=O)C(=O)Cn2cnc3c(N)ncnc32)C(=O)Cn2cnc3c(O)nc(N)nc32)[C@H](N)[C@@H](O)[C@@H]1O	200	–	–	–
NC[C@@H]1O[C@H](O[C@H]2[C@@H](O)[C@H](O[C@@H]3[C@@H](O)[C@H](N)C[C@H](N)[C@H]3O[C@H]3O[C@H](CN)[C@@H](O)[C@H](O)[C@H]3N)O[C@@H]2CSCCCCCCSCC(=O)NCCN(CC(=O)NCCN(CC(N)=O)C(=O)Cn2cnc3c(O)nc(N)nc32)C(=O)Cn2ccc(N)nc2=O)[C@H](N)[C@@H](O)[C@@H]1O	170	–	–	–
NC[C@@H]1O[C@H](O[C@H]2[C@@H](O)[C@H](O[C@@H]3[C@@H](O)[C@H](N)C[C@H](N)[C@H]3O[C@H]3O[C@H](CN)[C@@H](O)[C@H](O)[C@H]3N)O[C@@H]2CO)[C@H](N)[C@@H](O)[C@@H]1O [FRAMYCETIN]	180	–	–	–

Source: ChEMBL document CHEMBL1149371, “A strategy for the design of selective RNA binding agents. Preparation and RRE RNA binding affinities of a neomycin-peptide nucleic acid heteroconjugate library” (Bioorg Med Chem Lett, 2006)
